The values that follow come from ChEMBL document CHEMBL1146054, “Structural modifications of the cannabinoid side chain towards C3-aryl and 1',1'-cycloalkyl-1'-cyano cannabinoids” (Bioorg Med Chem Lett, 2006).

Assay [1] can be described thus: Selectivity for rat CB1 receptor over mouse CB2 receptor.
Assay [2] addresses Cannabinoid receptor 1 (Rattus norvegicus, UniProt P20272). Nature of the assay: Displacement of [3H]CP-55940 from rat brain CB1 receptor. On the technique in general: In a radioligand displacement assay an active substance lowers the binding of a labelled ligand.
Assay [3] deals with Cannabinoid receptor 2 (Mus musculus, UniProt P47936). Nature of the assay: Displacement of [3H]CP-55940 from mouse spleen CB2 receptor. Type of assay: tissue-based.
Sequence of Cannabinoid receptor 2 (P47936 whole entry): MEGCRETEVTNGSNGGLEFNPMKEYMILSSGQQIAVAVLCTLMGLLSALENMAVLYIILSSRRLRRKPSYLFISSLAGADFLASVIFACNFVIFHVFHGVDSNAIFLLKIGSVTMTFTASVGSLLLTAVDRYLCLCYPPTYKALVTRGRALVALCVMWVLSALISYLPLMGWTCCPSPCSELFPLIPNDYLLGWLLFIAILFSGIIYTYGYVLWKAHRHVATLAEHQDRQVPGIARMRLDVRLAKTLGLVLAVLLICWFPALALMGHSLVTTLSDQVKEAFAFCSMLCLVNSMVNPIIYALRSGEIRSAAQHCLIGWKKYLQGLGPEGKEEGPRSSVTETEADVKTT

Sequence of Cannabinoid receptor 1 (P20272 whole entry): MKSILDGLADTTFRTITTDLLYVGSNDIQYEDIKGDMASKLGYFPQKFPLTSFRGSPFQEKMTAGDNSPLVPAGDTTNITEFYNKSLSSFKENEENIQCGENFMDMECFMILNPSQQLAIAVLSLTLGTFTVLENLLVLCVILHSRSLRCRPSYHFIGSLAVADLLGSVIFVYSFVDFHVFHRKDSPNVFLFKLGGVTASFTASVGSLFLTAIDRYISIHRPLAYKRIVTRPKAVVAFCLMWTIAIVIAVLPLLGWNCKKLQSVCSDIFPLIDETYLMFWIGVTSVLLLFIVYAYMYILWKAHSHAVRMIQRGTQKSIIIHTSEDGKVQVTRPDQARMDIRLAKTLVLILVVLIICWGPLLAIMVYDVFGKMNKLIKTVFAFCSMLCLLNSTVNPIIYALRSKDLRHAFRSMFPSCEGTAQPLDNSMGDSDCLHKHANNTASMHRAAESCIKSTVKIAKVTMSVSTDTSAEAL

Turning to `CC1=CC[C@@H]2[C@@H](C1)c1c(O)cc(C34CC5CC(CC(C5)C3)C4)cc1OC2(C)C`, the Ratio Ki in assay [1] amounted to 0.1.
The Ki is a measure of affinity in units of concentration, obtained from inhibition or displacement. As for `C=C(C)[C@@H]1CCC(C)=C[C@H]1c1c(O)cc(C2(C#N)CCCCC2)cc1O`, the Ki is 319 nM in assay [2] and 111 nM in assay [3]. Moreover, in assay [1], the Ratio Ki was determined as 2.9.
For `CC1=CC[C@@H]2[C@@H](C1)c1c(O)cc(C3(C#N)CCCC3)cc1OC2(C)C`, the Ki was found to be 27.9 nM in assay [2] and 25.2 nM in assay [3]. Moreover, the Ratio Ki in assay [1] amounted to 1.1.
`C=C(C)[C@@H]1CCC(C)=C[C@H]1c1c(O)cc(-c2ccc(C)cc2)cc1O`: the Ki in assay [2] was 638 nM; in assay [3], 374 nM. Besides, the Ratio Ki in assay [1] was found to be 1.7.
Regarding `CCCCCC#Cc1cc(O)c2c(c1)OC(C)(C)[C@@H]1CC=C(C)C[C@@H]21`, in assay [1], the Ratio Ki amounted to 0.2.
With `CC1=CC[C@@H]2[C@@H](C1)c1c(O)cc(C3(C#N)CCCCC3)cc1OC2(C)C`, the Ki in assay [2] is 8.26 nM; in assay [3] it was 3.86 nM. Besides, the Ratio Ki in assay [1] worked out at 2.1.
On to `CCc1ccc(-c2cc(O)c3c(c2)OC(C)(C)[C@@H]2CC=C(C)C[C@@H]32)cc1`, for which the values for the Ki in assay [2] and in assay [3] were 119 nM and 51.7 nM, respectively. In assay [1], the Ratio Ki worked out at 2.3.
Take `CCCc1ccc(-c2cc(O)c3c(c2)OC(C)(C)[C@@H]2CC=C(C)C[C@@H]32)cc1`: the values for the Ki in assay [2] and in assay [3] were 57.8 nM and 108 nM, respectively. For the same compound, in assay [1], the Ratio Ki is 0.5.
The like results for `C=C(C)[C@@H]1CCC(C)=C[C@H]1c1c(O)cc(C2(C#N)CCCC2)cc1O` were, in that order, 255 nM, 105 nM and 2.4.
As for `C=C(C)[C@@H]1CCC(C)=C[C@H]1c1c(O)cc(-c2cccc3ccccc23)cc1O`, the Ki was 754 nM in assay [2] and 222 nM in assay [3]. Also, the Ratio Ki in assay [1] stood at 3.4.
As to `CC1=CC[C@@H]2[C@@H](C1)c1c(O)cc(-c3cccc4ccccc34)cc1OC2(C)C`, the Ki in assay [2] was 11.7 nM; in assay [3], 9.39 nM. Moreover, in assay [1], the Ratio Ki was 1.2.
As for `CCCCCc1cc(O)c2c(c1)OC(C)(C)[C@@H]1CC=C(C)C[C@@H]21`, the Ratio Ki in assay [1] was 1.2.
On to `CC1=CC[C@@H]2[C@@H](C1)c1c(O)cc(-c3ccc(C)cc3)cc1OC2(C)C`, for which the Ki in assay [2] came out at 95.5 nM; in assay [3] it was 71.8 nM. The Ratio Ki in assay [1] is 1.3.
